In paper PMC7468108 (Communications Biology, 2020):

Experiments:
Aβ42 = target: T1, Aβ42 (Homo sapiens, UniProt P05067); experiment: ThT-binding assay, inhibition of Aβ42 aggregation; type: biochemical; details: any molar ratio (5:1, 1:1, 1:5)
T1 construct: purchased rPeptide (USA)
Procedure: ThT is known to intercalate within the amyloid fibrils resulting in fluorescence emission proportionate to the amyloid growth.
(§1) The resulting thin films were dissolved in PBS (100 mM, pH 7.4) and sonicated for 5 min to get a stock concentration of 50 µM, which immediately diluted to required concentration for an experiment. Stock solutions of ThT (4 mM in PBS) and hybrid molecules (10 mM in PBS) were prepared. All the stock solutions were diluted according to the requirement.
The experiment was performed according to the previous report. […] […] Excitation and emission wavelengths were set at 440 nm and 485 nm, respectively.

hIAPP = target: T2, hIAPP (Homo sapiens, UniProt P10997); experiment: ThT-binding assay, inhibition of hIAPP aggregation; type: biochemical; details: molar ratios 5:1, 1:1, 1:5
T2 construct: hIAPP is a 37-amino acid neuroendocrine peptide hormone; purchased Peptide 2.0 (USA)
T2 sequence (P10997 34-70 limits assumed): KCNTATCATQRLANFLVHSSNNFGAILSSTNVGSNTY
Procedure: A similar inhibitory effect by the hybrid molecules was found toward hIAPP aggregation. […] Upon co-incubation of hIAPP with the hybrid molecules, a dose-response inhibition of hIAPP fibril formation was observed (Fig. 2d, e and Supplementary Fig. 3). […] Also, for IAPP, the marginally stronger inhibitory effect of WGalNAc was statistically significant (Supplementary Fig. 2b).
as §1
The experiment was performed according to the previous report. […] Kinetics fluorescence data were collected at 37 °C in triplicate using Infinite M200 microplate reader (Tecan, Switzerland), with measurements acquired at 15 min intervals. Excitation and emission wavelengths were set at 440 nm and 485 nm, respectively.

T1 sequence (P05067 672-713 limits assumed): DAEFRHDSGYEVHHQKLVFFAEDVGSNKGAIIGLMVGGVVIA

SMILES | inhibition of Aβ42 fibril formation (ThT), in words (Aβ42) | inhibition of hIAPP fibril formation (ThT), in words (hIAPP)
N[C@@H]1O[C@H](CO)[C@H](O)[C@H](O)[C@H]1O [galactosylamine, 1-amino-1-deoxy-β-D-galactose] | no inhibition effect | No inhibitory effect
N[C@@H](Cc1c[nH]c2ccccc12)C(=O)O [tryptophan] | no inhibition effect | No inhibitory effect
